Consider 1 compound from publication PMC7923466, “Mining of two novel aldehyde dehydrogenases (DHY-SC-VUT5 and DHY-G-VUT7) from metagenome of hydrocarbon contaminated soils” (BMC Biotechnology, 2021).

One test deals with T1, DHY-SC-VUT5.
T1 construct: codon-optimised synthetic gene in pET-30a(+) (NdeI/HindIII), C-terminal 6xHis kept, E. coli BL21(DE3), Ni-NTA purified, ~51 kDa band
Kind of test: NADH formation at […] nm, Michaelis-Menten fit (GraphPad Prism). The test is classed as biochemical, uncultured bacterium. Conditions: 50 mM NAD+, 50 mM Tris-HCl pH 8.0, 30 °C; hexanal 25-200 mM.

The test system of a further test is T2, DHY-G-VUT7.
T2 construct: codon-optimised synthetic gene in pET-30a(+) (NdeI/HindIII), C-terminal 6xHis kept, E. coli BL21(DE3), Ni-NTA purified, ~67 kDa band
Described as above. Conditions: 50 mM NAD+, 50 mM Tris-HCl pH 8.0, 30 °C; hexanal 25-200 mM. It counts as biochemical, metagenome: hydrocarbon contaminated soil.

Regarding `CCCCCC=O` [hexanal], the Km – broadly, the substrate concentration at which the rate is half of its maximum – with DHY-SC-VUT5 was found to be 13.8 mM; with DHY-G-VUT7, 2.83 mM.
